Results as given in patent publication US20240199701A1, “IMMUNOMODULATORS” (BRISTOL-MYERS SQUIBB COMPANY, priority 2021, published 2024).
Where two headings read alike, the source gives them in different places. Starred links: 1 amine or outer side, 2 acyl side, 3 side chain; linkers in the order of their positions; H or OH if unused. Positions of bridges follow the written chain, without caps; N, C: chain ends. Non-standard residues stand in square brackets, D forms with d. Groups on a side chain read outwards from the residue. Primed or numbered codes have the meaning given here. *: point of attachment. Trp(1-CH2CO) = O=C([C@H](Cc1cn(CC(=O)[*:3])c2ccccc12)N[*:1])[*:2]; Pra′ = C-terminal residue bearing an alkyne, joined as triazole; Hexadecanoyl(16-SO3H) = O=C(CCCCCCCCCCCCCCCS(=O)(=O)O)*; γGlu = O=C(O)[C@H](CCC(=O)[*:2])N[*:1]; Hyp = O=C(O)[C@@H]1C[C@@H](O)CN1; NMeNle = CCCC[C@H](NC)C(=O)O; PEG11′ = not defined here; NMeA = CN[C@@H](C)C(=O)O; Dab = NCC[C@H](N)C(=O)O; Dap = NC[C@H](N)C(=O)O

Experiments:
[1] = target: T1, 293T-hPD-L1 cells (binding of PE-labeled PD-1-Ig to human PD-L1) (Homo sapiens, UniProt Q9NZQ7); assay: 293T-hPD-L1 Cell Binding High-Content Screening Assay (CBA); format: cell-based; conditions: 293T cells over-expressing human PD-L1, PE-labeled PD-1-Ig 0.5 nM, 10% fetal calf serum; read-out: 293T-hPD-L1_PD-1 IC50
T1 construct: expressed in transfected cells
Method: 293T-hPD-L1 Cell Binding High-Content Screening Assay (CBA). Phycoerythrin (PE) was covalently linked to the Ig epitope tag of human PD-1-Ig and fluorescently-labeled PD-1-Ig was used for binding studies with a human embryonic kidney cell line (293T) stably over-expressing human PD-L1 (293T-hPD-L1). Briefly, 2×10^3 293T-hPD-L1 cells were seeded into 384 well plates in 20 μl of DMEM supplemented with 10% fetal calf serum and cultured overnight. 125 nl of compound was added to cells followed by 5 μl of PE-labeled PD-1-Ig (0.5 nM final), diluted in DMEM supplemented with 10% fetal calf serum, followed by incubation at 37° C. for Ih. Cells were washed 3× in 100 μl dPBS followed by fixation with 30 μl of 4% paraformaldehyde in dPBS containing 10 μg/ml Hoechst 33342 for 30 min at room temperature. Cells were washed 3× in 100 μl of dPBS followed by final addition of 15 μl of dPBS. Data was collected and processed using a Cell Insight NXT High Content Imager and associated software.

PD-1-Ig/PD-L1-His = target: T2, PD-1-Ig/PD-L1-His (Homo sapiens, UniProt Q9NZQ7); assay: PD-1/PD-L1 Homogenous Time-Resolved Fluorescence (HTRF) binding assay
T2 construct: hPDL1(19-239)-TVMV-His; TVMV protease cleavage site (C); made in house; host or cells: HEK293T
From the text: The ability of the macrocyclic peptides of the present disclosure to bind to PD-L1 was investigated using a PD-1/PD-L1 Homogenous Time-Resolved Fluorescence (HTRF) binding assay.
Homogenous Time-Resolved Fluorescence (HTRF) Assays of Binding of Soluble PD-1 to Soluble PD-L1. Soluble PD-1 and soluble PD-L1 refers to proteins with carboxyl-end truncations that remove the transmembrane-spanning regions and are fused to heterologous sequences, specifically the Fc portion of the human immunoglobulin G sequence (Ig) or the hexahistidine epitope tag (His). All binding studies were performed in an HTRF assay buffer consisting of dPBS supplemented with 0.1% (w/v) bovine serum albumin and 0.05% (v/v) Tween-20. For the PD-1-Ig/PD-L1-His binding assay, inhibitors were pre-incubated with PD-L1-His (10 nM final) for 15 m in 4 μl of assay buffer, followed by addition of PD-1-Ig (20 nM final) in 1 μl of assay buffer and further incubation for 15 m. PD-L1 fusion proteins from either human, cynomologous macaques, mouse, or other species were used. HTRF detection was achieved using europium crypate-labeled anti-Ig monoclonal antibody (1 nM final) and allophycocyanin (APC) labeled anti-His monoclonal antibody (20 nM final). Antibodies were diluted in HTRF detection buffer and 5 μl was dispensed on top of binding reaction. The reaction was allowed to equilibrate for 30 minutes and signal (665 nm/620 nm ratio) was obtained using an EnVision fluorometer. Additional binding assays were established between PD-1-Ig/PD-L2-His (20 and 5 nM, respectively), CD80-His/PD-L1-Ig (100 and 10 nM, respectively) and CD80-His/CTLA4-Ig (10 and 5 nM, respectively).
Recombinant Proteins. Carboxyl-truncated human PD-1 (amino acids 25-167) with a C-terminal human Ig epitope tag [hPD-1 (25-167)-3S-IG] and human PD-L1 (amino acids 18-239) with a C-terminal His epitope tag [hPD-L1(19-239)-tobacco vein mottling virus protease cleavage site (TVMV)-His] were expressed in HEK293T cells and purified sequentially by recombinant Protein A affinity chromatography and size exclusion chromatography. Human PD-L2-His (Sino Biologicals), CD80-His (Sino Biologicals), CTLA4-Ig (RnD Systems) were all obtained through commercial sources.

[2] = target: Recombinant Human PD-L1-TVMV-His, hPDL1(19-239)-TVMV-His (human) (UniProt Q9NZQ7); assay: HTRF competition, inhibits PD-1-Ig binding to PD-L1-His
[3] = soluble hPD-1-Ig / hPD-L1-His, HTRF, read-out: LE HTRF hPD1 hPDL1 IC50

T1 sequence (Q9NZQ7 19-290): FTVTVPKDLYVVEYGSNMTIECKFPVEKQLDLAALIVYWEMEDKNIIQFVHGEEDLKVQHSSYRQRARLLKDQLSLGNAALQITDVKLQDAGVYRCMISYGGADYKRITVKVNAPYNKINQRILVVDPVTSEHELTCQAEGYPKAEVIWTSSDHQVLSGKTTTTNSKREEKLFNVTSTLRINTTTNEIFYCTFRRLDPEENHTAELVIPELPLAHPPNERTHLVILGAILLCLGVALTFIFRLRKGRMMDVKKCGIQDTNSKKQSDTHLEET
Chain of Recombinant Human PD-L1-TVMV-His, hPDL1(19-239)-TVMV-His (human) (Q9NZQ7 other isoform, or with tags, fused parts or gaps limits assumed): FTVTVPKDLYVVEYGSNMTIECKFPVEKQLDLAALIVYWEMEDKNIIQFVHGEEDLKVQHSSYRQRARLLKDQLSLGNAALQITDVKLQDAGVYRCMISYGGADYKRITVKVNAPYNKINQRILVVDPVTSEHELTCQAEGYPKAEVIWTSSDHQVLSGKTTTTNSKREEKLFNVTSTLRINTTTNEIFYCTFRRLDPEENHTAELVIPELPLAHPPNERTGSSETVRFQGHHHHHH

| Molecule | IC50 [1] [nM] | IC50 (PD-1-Ig/PD-L1-His; [3]) [nM] | other results |
| --- | --- | --- | --- |
| CCCC[C@H]1C(=O)N(C)[C@@H](CCCC)C(=O)N[C@@H](CC(C)C)C(=O)N[C@H](C(=O)NCC(=O)N[C@@H](Cc2cn(CCOCCOCCOCCOCCOCCOCCOCCOCCOCCOCCOCCNC(=O)CC[C@H](NC(=O)CCCCCCCCCCCCCCCP(=O)(O)O)C(=O)O)nn2)C(=O)O)CSCC(=O)N[C@@H](Cc2ccc(O)cc2)C(=O)N(C)[C@@H](C)C(=O)N[C@@H](CC(N)=O)C(=O)N2CCC[C@H]2C(=O)N[C@@H](CN)C(=O)N[C@@H](CC(C)C)C(=O)N2C[C@H](O)C[C@H]2C(=O)N[C@@H](Cc2c[nH]c3ccccc23)C(=O)N[C@@H](CCN)C(=O)N[C@@H](Cc2cn(CC(=O)O)c3ccccc23)C(=O)N1C [Example 1007] |  |  | IC50 (PD-1-Ig/PD-L1-His): 14 nM |
| CCCC[C@H]1C(=O)N(C)[C@@H](CCCC)C(=O)N[C@@H](CC(C)C)C(=O)N[C@H](C(=O)N[C@@H](C)C(=O)N[C@@H](Cc2cn(CCOCCOCCOCCOCCOCCOCCOCCOCCOCCOCCOCCNC(=O)CC[C@H](NC(=O)CCCCCCCCCCCCCCCS(=O)(=O)O)C(=O)O)nn2)C(=O)O)CSCC(=O)N[C@@H](Cc2ccc(O)cc2)C(=O)N(C)[C@@H](C)C(=O)N[C@@H](CC(N)=O)C(=O)N2CCC[C@H]2C(=O)N[C@@H](CN)C(=O)N[C@@H](CC(C)C)C(=O)N2C[C@H](O)C[C@H]2C(=O)N[C@@H](Cc2c[nH]c3ccccc23)C(=O)N[C@@H](CCN)C(=O)N[C@@H](Cc2cn(CC(=O)O)c3ccccc23)C(=O)N1C [Example 1002] | 0.1 | 2 |  |
| CCCC[C@H]1C(=O)N(C)[C@@H](CCCC)C(=O)N[C@@H](CC(C)C)C(=O)N[C@H](C(=O)NCC(=O)N[C@@H](Cc2cn(CCOCCOCCOCCOCCOCCOCCOCCOCCOCCOCCOCCNC(=O)CC[C@H](NC(=O)CCCCCCCCCCCCCCCS(=O)(=O)O)C(=O)O)nn2)C(=O)O)CSCC(=O)N[C@@H](Cc2ccc(O)cc2)C(=O)N(C)[C@@H](C)C(=O)N[C@@H](CC(N)=O)C(=O)N2CCC[C@H]2C(=O)N[C@@H](CN)C(=O)N[C@@H](CC(C)C)C(=O)N2C[C@H](O)C[C@H]2C(=O)N[C@@H](Cc2c[nH]c3ccccc23)C(=O)N[C@@H](CCN)C(=O)N[C@@H](Cc2cn(CC(=O)O)c3ccccc23)C(=O)N1C [Example 1008] | 1.2 | 7.3 |  |
| CCCC[C@H]1C(=O)N(C)[C@@H](CCCC)C(=O)N[C@@H](CC(C)C)C(=O)N[C@H](C(=O)N[C@@H](CCCN)C(=O)N[C@@H](Cc2cn(CCOCCOCCOCCOCCOCCOCCOCCOCCOCCOCCOCCNC(=O)CC[C@H](NC(=O)CCCCCCCCCCCCCCCS(=O)(=O)O)C(=O)O)nn2)C(=O)O)CSCC(=O)N[C@@H](Cc2ccc(O)cc2)C(=O)N(C)[C@@H](C)C(=O)N[C@@H](CC(N)=O)C(=O)N2CCC[C@H]2C(=O)N[C@@H](CN)C(=O)N[C@@H](CC(C)C)C(=O)N2C[C@H](O)C[C@H]2C(=O)N[C@@H](Cc2c[nH]c3ccccc23)C(=O)N[C@@H](CCN)C(=O)N[C@@H](Cc2cn(CC(=O)O)c3ccccc23)C(=O)N1C [Example 1003] |  | 38.1 |  |
| {CH2CO}-Y[NMeA]NP[Dap]L[Hyp]W[Dab][Trp(1-CH2CO)][NMeNle][NMeNle]LC[Pra′]([PEG11′-γGlu-Hexadecanoyl(16-SO3H)])-OH (thioether N-14; also: Pra linked to Peg11 via triazole) [Example 1001] |  |  | IC50 [2]: 0.6 nM |

The next lines start with results.

| IC50 [1] [nM] | IC50 (PD-1-Ig/PD-L1-His; [3]) [nM] | Molecule | other results |
| --- | --- | --- | --- |
| 61.8 |  | CCCC[C@H]1C(=O)N(C)[C@@H](CCCC)C(=O)N[C@@H](CC(C)C)C(=O)N[C@H](C(=O)NCC(=O)N[C@@H](Cc2cn(CCOCCOCCNC(=O)[C@H](CCC(=O)O)NC(=O)CC[C@H](NC(=O)CCCCCCCCCCCCCCCS(=O)(=O)O)C(=O)O)nn2)C(=O)O)CSCC(=O)N[C@@H](Cc2ccc(O)cc2)C(=O)N(C)[C@@H](C)C(=O)N[C@@H](CC(N)=O)C(=O)N2CCC[C@H]2C(=O)N[C@@H](CN)C(=O)N[C@@H](CC(C)C)C(=O)N2C[C@H](O)C[C@H]2C(=O)N[C@@H](Cc2c[nH]c3ccccc23)C(=O)N[C@@H](CCN)C(=O)N[C@@H](Cc2cn(CC(=O)O)c3ccccc23)C(=O)N1C [Example 1006] |  |
| 0.13 |  | CCCC[C@H]1C(=O)N(C)[C@@H](CCCC)C(=O)N[C@@H](CC(C)C)C(=O)N[C@H](C(=O)NCC(=O)N[C@@H](Cc2cn(CCOCCOCCOCCNC(=O)CC[C@H](NC(=O)CCCCCCCCCCCS(=O)(=O)O)C(=O)O)nn2)C(=O)O)CSCC(=O)N[C@@H](Cc2ccc(O)cc2)C(=O)N(C)[C@@H](C)C(=O)N[C@@H](CC(N)=O)C(=O)N2CCC[C@H]2C(=O)N[C@@H](CN)C(=O)N[C@@H](CC(C)C)C(=O)N2C[C@H](O)C[C@H]2C(=O)N[C@@H](Cc2c[nH]c3ccccc23)C(=O)N[C@@H](CCN)C(=O)N[C@@H](Cc2cn(CC(=O)O)c3ccccc23)C(=O)N1C [Example 1010] |  |
